A short description of one series: in vitro. The conditions noted are these: human, Caco-2. The procedure: (§1) Caco-2: The cell permeability of a substance can be investigated by means of in vitro testing in a flux assay using Caco-2 cells [M. D. Troutman and D. R. Thakker, Pharm. Res. 20 (8), 1210-1224 (2003)]. For this purpose, the cells were cultured for 15-16 days on 24-well filter plates. For the determination of permeation, the respective test substance was applied in a HEPES buffer to the cells either apically (A) or basally (B) and incubated for 2 hours. After 0 hours and after 2 hours, samples were taken from the cis and trans compartments. The samples were separated by HPLC (Agilent 1200, Böblingen, Germany) using reverse phase columns. The HPLC system was coupled via a Turbo Ion Spray Interface to a Triple Quadropol mass spectrometer API 4000 (AB SCIEX Deutschland GmbH, Darmstadt, Germany). The permeability was evaluated on the basis of a Papp value, which was calculated using the formula published by Schwab et al. [D. Schwab et al., J. Med. Chem. 46, 1716-1725 (2003)]. A substance was classified as actively transported when the ratio of Papp (B-A) to Papp (A-B) (efflux ratio) was >2 or <0.5. […] In Table 2, reference compounds are provided for comparison.

For a further series, the system named is NCI-H292. The series can be described thus: Cytotoxicity in vitro in the presence and absence of elastase (MTT assay). The series is classed as cell-based. The conditions noted are these: NCI-H292 cells, 72 h incubation. The essentials:
(§2)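 Elastase dependence was tested by running each compound (10^−5 to 10^−13 M) side by side alone and with 10 nM NE for 72 h at 37 °C. Metabolic activity was assessed by MTT at 570 nm; automated runs report AC50 at −50% activity from a 4-parameter Hill fit with medium-only and DMSO controls as anchors.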
For orientation: Tetrazolium assays rely on reduction of a dye to a coloured formazan, in cell work by metabolically active cells.

For a further series, the system named is SUM149PT. The description is as above. The format is cell-based. The following applies: SUM149PT cells, 72 h incubation. The essentials: as §2
In the next series the test system is 786-O. The series is described as above. The following applies: 786-O cells, 72 h incubation. The series is classed as cell-based. The essentials:
as §2

In the next series the test system is HT29. The description is as above. The conditions noted are these: HT29 cells, 72 h incubation. The series is classed as cell-based. The essentials:
as §2

Series [1] in a line: Pharmacokinetics in rat after intravenous administration. The series is classed as in vivo. The conditions noted are these: plasma, male rats, intravenous bolus 0.5 mg/kg. The procedure: Male rats (n=3) were given an intravenous 0.5 mg/kg bolus dose of test article dissolved in plasma with 1% DMSO and 2% ethanol. Serial blood samples were collected up to 24 hours post-dose. Plasma was harvested from blood samples and stored frozen until sample analysis. Test article plasma concentrations were analyzed by LC/MS/MS. Pharmacokinetic parameters were calculated using non-compartmental analysis.

Another series concerns Caco-2 cells. The series can be described thus: Caco-2 flux assay for cellular permeability. The conditions noted are these: for Caco-2 Flux Papp A-B [nm/s]: Caco-2 cells, apical to basal, 2 hours incubation; for Caco-2 Flux Efflux ratio: ratio Papp (B-A) to Papp (A-B), actively transported when >2 or <0.5, 0.5-2 not actively transported. The procedure: as §1
(Caco-2 monolayers are a common model of the intestinal barrier.)

Where [2] appears, read: compound alone, read-out: IC50 without neutrophil elastase.
[3] abbreviates: with 10 nM elastase (NE), read-out: IC50 with neutrophil elastase.

Where two headings read alike, the source gives them in different places.

What is called Papp A→B is how fast a substance crosses the layer from the apical side. Low values mean slow passage, high ones fast passage. A word on the efflux ratio: it is a quotient of directional permeabilities that is used to spot active efflux. Broadly, the IC50 is the concentration needed to halve the response being measured. A word on the AUC: it is the area under the concentration-time curve, a measure of exposure. In general, half-life refers to how long it takes for the measured level to halve.

Regarding `COC(=O)[C@@H](N)CCN(C(=O)CO)[C@@H](c1cc(-c2cc(F)ccc2F)cn1Cc1ccccc1)C(C)(C)C`, in “in vitro”, the Papp A→B at 2 h fell in the range of 1 to 9.9 ×10⁻⁶ cm/s and the efflux ratio at 2 h was above 2.

As for `CC(C)(C)[C@H](c1cc(-c2cc(F)ccc2F)cn1Cc1ccccc1)N(CCCN)C(=O)CO`, in “in vitro”, the Papp A→B at 2 h lay in the range of 0.1 to 0.9 ×10⁻⁶ cm/s and the efflux ratio at 2 h was above 2.

For `CC(C)(C)[C@H](c1cc(-c2cc(F)ccc2F)cn1Cc1ccccc1)N(CCC(N)C(F)F)C(=O)CO` (stereo partly shown), in the series “in vitro”, the Papp A→B at 2 h lay in the range of 10 to 99.9 ×10⁻⁶ cm/s and the efflux ratio at 2 h is 0.5 to 2.

`CCc1c2c(nc3ccccc13)-c1cc3c(c(=O)n1C2)COC(=O)[C@]3(O)CC`: in “in vitro”, the Papp A→B at 2 h was 10 to 99.9 ×10⁻⁶ cm/s and the efflux ratio at 2 h was in the range of 0.5 to 2.

With `CCCNC(=O)Nc1cccc(S(=O)(=O)Nc2cccc([C@@H](CC(=O)O)NC(=O)Nc3ccc(NC(=O)NCCOCCOCCOCCC(=O)NCCCC[C@H](NC(=O)CCOCCOCCOCCNC(=O)Nc4ccc(NC(=O)N[C@H](CC(=O)O)c5cccc(NS(=O)(=O)c6cccc(NC(=O)NCCC)c6)c5)cc4)C(=O)NCCOCCOCCOCCC(=O)N[C@@H](CC(=O)O)C(=O)N4CCC[C@H]4C(=O)N[C@H](C(=O)O[C@@H](c4ccccc4)[C@@H](C)NC(=O)[C@H](C)[C@@H](OC)[C@@H]4CCCN4C(=O)C[C@@H](OC)[C@H]([C@@H](C)CC)N(C)C(=O)[C@@H](NC(=O)[C@@H](NC)C(C)C)C(C)C)C(C)C)cc3)c2)c1` [Compound 14], the IC50 in the series with NCI-H292 (setting [2]) was 10 to 99 nM; in the series on NCI-H292 (setting [3]), 0.1 to 1 nM; with SUM149PT (setting [2]), 10 to 99 nM; in the series with SUM149PT (setting [3]), 0.1 to 1 nM; with 786-O (setting [2]) it was 100 to 999 nM; in the series with 786-O (setting [3]), 1 to 9.9 nM. In addition, the IC50 in the series on HT29 (setting [2]) is 100 to 999 nM; in the series with HT29 (setting [3]), 0.1 to 1 nM. Further, the AUC in series [1] lay within 100 to 500 µg·h/mL. In series [1], this molecule displayed a half-life of 10 to 40 h. Moreover, in series [1] (read-out: CL plasma), the clearance fell in the range of 0.02 to 0.5 mL/min/kg. The Vd in series [1] (read-out: VSS) lay in the range of 0.1 to 0.3 L/kg.

`CCCNC(=O)Nc1cccc(S(=O)(=O)Nc2cccc([C@@H](CC(=O)O)NC(=O)Nc3ccc(NC(=O)NCCOCCOCCOCCC(=O)N[C@@H](CC(=O)O)C(=O)N4CCC[C@H]4C(=O)N[C@H](C(=O)OCCCNC(=O)[C@H](Cc4ccccc4)NC(=O)[C@H](C)[C@@H](OC)[C@@H]4CCCN4C(=O)C[C@@H](OC)[C@H]([C@@H](C)CC)N(C)C(=O)[C@@H](NC(=O)[C@H](C(C)C)N(C)C)C(C)C)C(C)C)cc3)c2)c1` [Compound 30]: the IC50 in the series with NCI-H292 (setting [2]) was in the range of 10 to 99 nM; in the series with NCI-H292 (setting [3]), 1 to 9.9 nM; in the series with SUM149PT (setting [2]), 10 to 99 nM; with SUM149PT (setting [3]), 1 to 9.9 nM; with 786-O (setting [2]), 100 to 999 nM; in the series on 786-O (setting [3]), 10 to 99 nM. The IC50 in the series on HT29 (setting [2]) lay within 100 to 999 nM; in the series on HT29 (setting [3]) it was 1 to 9.9 nM.

As for `CCCNC(=O)Nc1cccc(S(=O)(=O)Nc2cccc([C@@H](CC(=O)O)NC(=O)Nc3ccc(NC(=O)NCCOCCOCCOCCC(=O)N[C@@H](CC(=O)O)C(=O)N4CCC[C@H]4C(=O)N[C@H](C(=O)NCCC(C)(C)C(=O)OCCCNC(=O)[C@H](Cc4ccccc4)NC(=O)[C@H](C)[C@@H](OC)[C@@H]4CCCN4C(=O)C[C@@H](OC)[C@H]([C@@H](C)CC)N(C)C(=O)[C@@H](NC(=O)[C@H](C(C)C)N(C)C)C(C)C)C(C)C)cc3)c2)c1` [Compound 31], the IC50 with NCI-H292 (setting [2]) lay in the range of 10 to 99 nM; in the series on NCI-H292 (setting [3]), 0.1 to 1 nM; in the series with SUM149PT (setting [2]), 10 to 99 nM; in the series with SUM149PT (setting [3]) it was 0.1 to 1 nM; in the series on 786-O (setting [2]) it was 100 to 999 nM; with 786-O (setting [3]) it was 10 to 99 nM. Further, the IC50 with HT29 (setting [2]) is 10 to 99 nM; with HT29 (setting [3]), 0.1 to 1 nM.

For `CCCNC(=O)Nc1cccc(S(=O)(=O)Nc2cccc([C@@H](CC(=O)O)NC(=O)Nc3ccc(NC(=O)NCCOCCOCCOCCC(=O)N[C@@H](CC(=O)O)C(=O)N4CCC[C@H]4C(=O)N[C@H](C(=O)OC(C)(C)CCNC(=O)[C@H](Cc4ccccc4)NC(=O)[C@H](C)[C@@H](OC)[C@@H]4CCCN4C(=O)C[C@@H](OC)[C@H]([C@@H](C)CC)N(C)C(=O)[C@@H](NC(=O)[C@H](C(C)C)N(C)C)C(C)C)C(C)C)cc3)c2)c1` [Compound 32], the IC50 lay in the range of 10 to 99 nM in the series with NCI-H292 (setting [2]); 1 to 9.9 nM in the series with NCI-H292 (setting [3]); 10 to 99 nM in the series on SUM149PT (setting [2]); 1 to 9.9 nM in the series on SUM149PT (setting [3]); 100 to 999 nM with 786-O (setting [2]); 10 to 99 nM in the series with 786-O (setting [3]). The IC50 in the series on HT29 (setting [2]) lay in the range of 10 to 99 nM; in the series on HT29 (setting [3]) it was 1 to 9.9 nM.

Take `CC[C@@]1(O)C(=O)OCc2c1cc1n(c2=O)Cc2c-1nc1cc(F)c(C)c3c1c2[C@@H](NC(=O)CO)CC3` [Ref 2, DXd, reference compound]: in the series on Caco-2 cells, the “Caco-2 Flux Papp A-B [nm/s]” value is “AA (AA = 1-9 nm/s)” and the “Caco-2 Flux Efflux ratio” value is listed as “A (A = actively transported)”.

As to `CC[C@@]1(O)C(=O)OCc2c1cc1n(c2=O)Cc2cc3cc4c(cc3nc2-1)OCO4` [Ref 3, 10,11-methylenedioxy-camptothecin, reference compound], in the series with Caco-2 cells, the “Caco-2 Flux Papp A-B [nm/s]” value is reported as “CC (CC = 100-999 nm/s)” and the “Caco-2 Flux Efflux ratio” value was “B (B = not actively transported)”.

For the molecule “N2-(14-{4-[({(1R)-2-carboxy-1-[3-({3-[(propylcarbamoyl)amino]benzene-1-sulfonyl}amino)phenyl]ethyl}carbamoyl)amino]anilino}-14-oxo-4,7,10-trioxa-13-azatetradecanan-1-oyl}-L-asparaginyl-L-prolyl-N-{3-[{(1R)-1-[1-benzyl-4-(2,5-difluorophenyl)-1H-pyrrol-2-yl]-2,2-dimethylpropyl}(hydroxyacetyl)amino]propyl}-L-alaninamide [Compound 15]”, the IC50 is 100 to 999 nM in the series with NCI-H292 (setting [2]); 10 to 99 nM in the series on NCI-H292 (setting [3]); 10 to 99 nM in the series with SUM149PT (setting [2]); 1 to 9.9 nM with SUM149PT (setting [3]); above 1000 nM in the series with 786-O (setting [2]); 10 to 99 nM in the series with 786-O (setting [3]). Besides, the values for the IC50 with HT29 (setting [2]) and with HT29 (setting [3]) were 100 to 999 nM and 1 to 9.9 nM, respectively.

Turning to “exatecan mesylate [Ref 1, reference compound]”, in the series with Caco-2 cells, the “Caco-2 Flux Papp A-B [nm/s]” value is “CC (CC = 100-999 nm/s)” and the “Caco-2 Flux Efflux ratio” value was “B (B = not actively transported)”.
